Measured values published in ChEMBL document CHEMBL1150110, “Three novel protease inhibitors from a natural bloom of the cyanobacterium Microcystis aeruginosa” (J Nat Prod, 2002).
In brackets after ≈: the same amount, converted by molar mass. Activity calls are given as the source filed them. No cut-off for these calls is given here.

Legend:
[1] = Inhibition of trypsin at 45.5 ug/mL preincubated for 5 mins before addition of substrate measured after 30 mins
[2] = Inhibition of chymotrypsin at 45.5 ug/mL preincubated for 5 mins before addition of substrate measured after 30 mins
[3] = Inhibition of trypsin preincubated for 5 mins before addition of substrate measured after 30 mins

| Compound | inhibition [1] [%] | Activity [2] | IC50 [3] [mg/L] |
| --- | --- | --- | --- |
| CC(C)C[C@@H](NC(=O)[C@@H](O)Cc1ccc(O)cc1)C(=O)N1[C@@H]2C[C@H](O)CC[C@@H]2C[C@H]1C(N)=O | 15 | – | – |
| CC[C@H](C)[C@@H]1NC(=O)[C@H](Cc2ccc(O)cc2)N(C)C(=O)[C@H](Cc2ccccc2)N2C(=O)[C@H](CC[C@H]2O)NC(=O)[C@H](CCCNC(=N)N)NC(=O)[C@@H](NC(=O)[C@H](CC(=O)O)NC(C)=O)[C@@H](C)OC1=O [MICROPEPTIN E1964] | – | inactive | 4.2 (≈ 4.35 µM) |
| CCCC(=O)N[C@@H](CC(=O)O)C(=O)N[C@@H]1C(=O)N[C@@H](CCCNC(=N)N)C(=O)N[C@H]2CC[C@@H](O)N(C2=O)[C@@H](Cc2ccccc2)C(=O)N(C)[C@@H](Cc2ccc(O)cc2)C(=O)N[C@@H]([C@@H](C)CC)C(=O)O[C@@H]1C [MICROPEPTIN EI992] | – | inactive | 3.8 (≈ 3.83 µM) |
